Source: ChEMBL document CHEMBL1156348, “Coumarins with monoamine oxidase inhibitory activity and antioxidative coumarino-lignans from Hibiscus syriacus” (J Nat Prod, 2001)
Converted amounts (≈) assume the structure as drawn. The source made the active and inactive calls. The calls are words filed in the database; no cut-off is given here.

Columns and labels:
[1] = system: Liver microsomes; assay: Antioxidant activity in rat liver microsomes assessed as inhibition of lipid peroxidation by TBA method; assay type: functional, Microsome
[2] = organism: Mus musculus; assay: Inhibition of mouse brain monoamine oxidase up to 70 ug/mL by Krajl method
[3] = Inhibition of mouse brain monoamine oxidase by Krajl method

IC50 [1] [µg/mL] | Activity [2] | IC50 [3] [µg/mL] | Compound
1.4 (≈ 3.5 µM) | inactive | – | COc1cc([C@H]2Oc3c(OC)cc4ccc(=O)oc4c3O[C@@H]2C)cc(OC)c1O
– | – | 44.5 (≈ 176 µM) | COc1c(OC)c(O)c2oc(=O)ccc2c1OC
9 (≈ 23.3 µM) | – | – | COc1cc([C@H]2Oc3c(OC)cc4ccc(=O)oc4c3O[C@@H]2CO)ccc1O [CLEOMISCOSIN A]
0.7 (≈ 1.68 µM) | – | – | COc1cc([C@H]2Oc3c(OC)cc4ccc(=O)oc4c3O[C@@H]2CO)cc(OC)c1O [CLEOMISCOSIN C]
5.5 (≈ 13.2 µM) | – | – | COc1cc([C@@H]2Oc3c(c(OC)cc4ccc(=O)oc34)O[C@H]2CO)cc(OC)c1O [CLEOMISCOSIN D]
– | – | 19.4 (≈ 101 µM) | COc1cc2ccc(=O)oc2cc1O [SCOPOLETIN]
0.8 | – | – | VITAMIN E
